Results as given in ChEMBL document CHEMBL1201862, “PubChem BioAssay data set” (2004).
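The compound was tested at five concentrations on cells cultured in 96-well plates, with a 48-hour exposure period. GI50 = concentration required for 50% inhibition of growth.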 Activity calls are given as the source filed them. No stated cut-off is given here; in the data, active = GI50 up to about 1.1 µM and inactive = higher.

Experiments:
Experiment in all cases: inhibition of tumour cell growth, NCI panel, 48 h
PC-3 = tested on: PC-3
COLO 205 = tested on: COLO 205
U-251 = tested on: U-251
T47D = tested on: T47D
UACC-257 = tested on: UACC-257
SK-MEL-2 = tested on: SK-MEL-2
K562 = tested on: K562
TK-10 = tested on: TK-10
SF-295 = tested on: SF-295
SK-MEL-28 = tested on: SK-MEL-28
EKVX = tested on: EKVX
NCI/ADR-RES = tested on: NCI/ADR-RES
HCT-116 = tested on: HCT-116
Hs-578T = tested on: Hs-578T
Malme-3M = tested on: Malme-3M
SK-OV-3 = tested on: SK-OV-3
UACC-62 = tested on: UACC-62
NCI-H23 = tested on: NCI-H23
DU-145 = tested on: DU-145
OVCAR-5 = tested on: OVCAR-5

Measured: GI50

COc1ccc(N2C(=O)C3c4[nH]c5ccccc5c4C4C(C)CCCC4C3C2=O)cc1 (stereo not drawn)
inactive: PC-3 17.7 µM | COLO 205 > 50.7 µM | U-251 > 57.7 µM | T47D > 78.7 µM | UACC-257 39.3 µM | SK-MEL-2 44.6 µM | K562 9.14 µM | TK-10 > 88.3 µM | SF-295 16.4 µM | SK-MEL-28 > 71.1 µM | EKVX > 39.4 µM | NCI/ADR-RES 14.9 µM | HCT-116 13 µM | Hs-578T 19.8 µM | Malme-3M 8.69 µM | SK-OV-3 > 81.3 µM | UACC-62 48.8 µM | NCI-H23 54.7 µM | DU-145 > 83 µM | OVCAR-5 > 63.8 µM

O=C(CCCCCNC(=O)c1ccc(Cl)cc1)NO
inactive: PC-3 2.86 µM | COLO 205 2.99 µM | U-251 5.04 µM | T47D 1.41 µM | UACC-257 2.72 µM | SK-MEL-2 2.33 µM | K562 2.84 µM | TK-10 3.49 µM | SF-295 8.91 µM | SK-MEL-28 5.32 µM | EKVX 8.97 µM | NCI/ADR-RES 1.15 µM | HCT-116 2.56 µM | Hs-578T 8.99 µM | Malme-3M 2.61 µM | SK-OV-3 6.38 µM | UACC-62 3.03 µM | NCI-H23 5.97 µM | DU-145 4.17 µM | OVCAR-5 1.64 µM

CCOC(=O)[C@@H](NC(=O)OC(C)(C)C)[C@@H](O)C(=O)OCC
inactive: PC-3 > 100 µM | COLO 205 > 100 µM | U-251 > 100 µM | T47D > 100 µM | UACC-257 > 100 µM | SK-MEL-2 > 100 µM | K562 > 100 µM | TK-10 > 100 µM | SF-295 > 100 µM | SK-MEL-28 > 100 µM | EKVX > 100 µM | NCI/ADR-RES > 100 µM | HCT-116 > 100 µM | Hs-578T > 100 µM | Malme-3M > 100 µM | SK-OV-3 > 100 µM | UACC-62 > 100 µM | NCI-H23 > 100 µM | DU-145 > 100 µM | OVCAR-5 > 100 µM

O=C(/C=C/c1cccc(Br)c1)c1ccc(Cl)cc1
inactive: PC-3 15 µM | COLO 205 17.2 µM | U-251 5.98 µM | T47D 12.8 µM | UACC-257 17.1 µM | SK-MEL-2 15.3 µM | K562 6.58 µM | TK-10 13 µM | SF-295 17.5 µM | SK-MEL-28 15.1 µM | EKVX 16 µM | NCI/ADR-RES 21.7 µM | HCT-116 5.35 µM | Hs-578T 22.7 µM | Malme-3M 14 µM | SK-OV-3 21.1 µM | UACC-62 14.8 µM | NCI-H23 17 µM | DU-145 14.8 µM | OVCAR-5 15.6 µM

BC(=O)NC(CC(C)C)C(=O)NCC(=O)NC1c2ccsc2C(=O)C1O.CN(C)C (stereo not drawn)
inactive: PC-3 > 100 µM | COLO 205 > 100 µM | U-251 > 100 µM | T47D > 100 µM | UACC-257 > 100 µM | SK-MEL-2 > 100 µM | K562 31.6 µM | TK-10 > 100 µM | SF-295 > 100 µM | SK-MEL-28 > 100 µM | EKVX > 100 µM | NCI/ADR-RES > 100 µM | HCT-116 > 100 µM | Hs-578T > 100 µM | Malme-3M > 100 µM | SK-OV-3 > 100 µM | UACC-62 > 100 µM | NCI-H23 > 100 µM | DU-145 > 100 µM | OVCAR-5 > 100 µM

O=[N+]([O-])/C(C(Cl)=C(Cl)Cl)=C1\NCCO1
inactive: PC-3 > 100 µM | COLO 205 > 100 µM | U-251 > 100 µM | T47D 59.4 µM | UACC-257 > 100 µM | SK-MEL-2 > 100 µM | K562 > 100 µM | TK-10 > 100 µM | SF-295 > 100 µM | SK-MEL-28 > 100 µM | EKVX > 100 µM | NCI/ADR-RES > 100 µM | HCT-116 87.5 µM | Hs-578T 47.5 µM | Malme-3M 45.8 µM | SK-OV-3 > 100 µM | UACC-62 35.7 µM | NCI-H23 > 100 µM | DU-145 > 100 µM | OVCAR-5 > 100 µM

O=C(O)[C@@H]1CSCN1C(=O)[C@@H]1CCC(=S)N1
inactive: PC-3 > 100 µM | T47D > 100 µM | UACC-257 > 100 µM | SK-MEL-2 > 100 µM | K562 > 100 µM | TK-10 > 100 µM | SF-295 > 100 µM | SK-MEL-28 > 100 µM | NCI/ADR-RES > 100 µM | Hs-578T > 100 µM | Malme-3M > 100 µM | SK-OV-3 > 100 µM | UACC-62 > 10 µM | NCI-H23 > 100 µM | DU-145 > 100 µM | OVCAR-5 > 100 µM

O=C(O)CCC1(C(=O)O)CCC(=O)c2ccccc21 (stereo not drawn)
inactive: PC-3 > 100 µM | COLO 205 > 100 µM | U-251 > 100 µM | T47D > 100 µM | UACC-257 > 100 µM | SK-MEL-2 > 100 µM | K562 > 100 µM | TK-10 > 100 µM | SF-295 > 100 µM | SK-MEL-28 > 100 µM | NCI/ADR-RES > 100 µM | HCT-116 > 100 µM | Hs-578T > 100 µM | Malme-3M > 100 µM | SK-OV-3 > 100 µM | UACC-62 > 100 µM | NCI-H23 > 100 µM | DU-145 > 100 µM | OVCAR-5 > 100 µM

O=C(Nc1ccc(Cl)cc1)NS(=O)(=O)c1coc2ccccc2c1=O
inactive: PC-3 > 10 µM | COLO 205 > 10 µM | U-251 > 10 µM | T47D > 10 µM | UACC-257 > 10 µM | SK-MEL-2 > 10 µM | TK-10 > 10 µM | SF-295 > 10 µM | SK-MEL-28 > 10 µM | EKVX > 10 µM | NCI/ADR-RES > 10 µM | HCT-116 > 10 µM | Hs-578T > 10 µM | Malme-3M > 10 µM | SK-OV-3 > 10 µM | UACC-62 > 10 µM | NCI-H23 > 10 µM | DU-145 > 10 µM | OVCAR-5 > 10 µM

C/C=C/C(C/C=C(\C)CO[Si](C)(C)C(C)(C)C)O[Si](C)(C)C(C)(C)C (stereo not drawn)
inactive: PC-3 > 100 µM | COLO 205 > 100 µM | T47D > 100 µM | UACC-257 > 100 µM | SK-MEL-2 > 100 µM | K562 > 100 µM | TK-10 > 100 µM | SF-295 > 100 µM | SK-MEL-28 > 100 µM | EKVX > 100 µM | NCI/ADR-RES > 100 µM | HCT-116 > 100 µM | Hs-578T > 100 µM | Malme-3M > 100 µM | SK-OV-3 > 100 µM | UACC-62 > 100 µM | NCI-H23 > 100 µM | DU-145 > 100 µM | OVCAR-5 > 100 µM
